{
  "source": "the supplement of paper PMC10307832",
  "experiment_in_all_cases": "relative viability (nuclei count vs DMSO), 5 days (fraction); higher = more cells survive",
  "key": {"[1]": {"compound": "CS(=O)(=O)c1ccc(-c2cnc(N)c(C(=O)Nc3ccccc3)n2)cc1 [VE-821] + CC1(C)CCC(c2ccc(Cl)cc2)=C(CN2CCN(c3ccc(C(=O)NS(=O)(=O)c4ccc(N[C@H](CCN5CCOCC5)CSc5ccccc5)c(S(=O)(=O)C(F)(F)F)c4)cc3)CC2)C1 [Navitoclax] (partner 0.5 µM)", "method_in_brief": "(§1)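 Relative viability equals treated-well nuclei counts divided by vehicle-well nuclei counts. Counts came from 4× images of lung cancer cell lines grown in 1536-well plates for 5 days after pin-tool dosing on the day after seeding. Dosing used one drug alone or a fixed anchor-drug dose plus five library-drug doses (not always all listed) in √10 steps, and values are medians of duplicate plates.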"}, "[2]": {"compound": "CS(=O)(=O)c1ccc(-c2cnc(N)c(C(=O)Nc3ccccc3)n2)cc1 [VE-821] + COc1cc2c(Oc3ccc(NC(=O)C4(C(=O)Nc5ccc(F)cc5)CC4)cc3F)ccnc2cc1OCCCN1CCOCC1 [Foretinib] (partner 0.25 µM)", "method_in_brief": "as §1"}, "[3]": {"compound": "CS(=O)(=O)c1ccc(C(=O)Nc2ccc(Cl)c(-c3ccccn3)c2)c(Cl)c1 [Vismodegib] + Cc1nc(NC(=O)N2CCC[C@H]2C(N)=O)sc1-c1ccnc(C(C)(C)C(F)(F)F)c1 [Alpelisib] (partner 2 µM)", "method_in_brief": "as §1"}, "[4]": {"compound": "N#CC[C@H](C1CCCC1)n1cc(-c2ncnc3[nH]ccc23)cn1 [Ruxolitinib] + CS(=O)(=O)CCNCc1ccc(-c2ccc3ncnc(Nc4ccc(OCc5cccc(F)c5)c(Cl)c4)c3c2)o1 [Lapatinib] (partner 2 µM)", "method_in_brief": "as §1"}},
  "data": [
    {"cell line": "UMC-11", "values": [
      {"measurement": "relative viability", "setting": "[1]; first compound 0.08 µM", "result": 0.358},
      {"measurement": "relative viability", "setting": "[1]; first compound 0.253 µM", "result": 0.344},
      {"measurement": "relative viability", "setting": "[1]; first compound 0.8 µM", "result": 0.332},
      {"measurement": "relative viability", "setting": "[1]; first compound 2.53 µM", "result": 0.302},
      {"measurement": "relative viability", "setting": "[1]; first compound 8 µM", "result": 0.222},
      {"measurement": "relative viability", "setting": "[2]; first compound 0.08 µM", "result": 1.09},
      {"measurement": "relative viability", "setting": "[2]; first compound 0.253 µM", "result": 1.01},
      {"measurement": "relative viability", "setting": "[2]; first compound 0.8 µM", "result": 1.08},
      {"measurement": "relative viability", "setting": "[2]; first compound 2.53 µM", "result": 1.06},
      {"measurement": "relative viability", "setting": "[2]; first compound 8 µM", "result": 0.553},
      {"measurement": "relative viability", "setting": "[3]; first compound 0.08 µM", "result": 1.01},
      {"measurement": "relative viability", "setting": "[3]; first compound 0.253 µM", "result": 1.01},
      {"measurement": "relative viability", "setting": "[3]; first compound 0.8 µM", "result": 1.05},
      {"measurement": "relative viability", "setting": "[3]; first compound 2.53 µM", "result": 0.957},
      {"measurement": "relative viability", "setting": "[3]; first compound 8 µM", "result": 0.952},
      {"measurement": "relative viability", "setting": "[4]; first compound 0.08 µM", "result": 1.01},
      {"measurement": "relative viability", "setting": "[4]; first compound 0.253 µM", "result": 0.934},
      {"measurement": "relative viability", "setting": "[4]; first compound 0.8 µM", "result": 1.23},
      {"measurement": "relative viability", "setting": "[4]; first compound 2.53 µM", "result": 0.998},
      {"measurement": "relative viability", "setting": "[4]; first compound 8 µM", "result": 1.02}
    ]}
  ]
}
